Reference: PMC8620791, “Inhibitory Effects of Sulfonamide Derivatives on the β-Carbonic Anhydrase (MpaCA) from Malassezia pachydermatis, a Commensal, Pathogenic Fungus Present in Domestic Animals” (International Journal of Molecular Sciences, 2021)

What was measured:
[1] = target: MreCA; design: method as in PMID 31963335; conditions: stopped-flow CO2 hydration; given for comparison; ref [26]; cited from earlier work
[2] = target: MgCA; design: method as in PMID 31963335; conditions: stopped-flow CO2 hydration; given for comparison; ref [26]; cited from earlier work
[3] = target: T1, β-CA (MpaCA) from Malassezia pachydermatis (Malassezia pachydermatis, UniProt A0A0M8MPA4); experiment: biochemical; conditions: recombinant enzyme, stopped-flow CO2 hydration, mean from three assays, errors ±5–10%, 15 min preincubation
T1 sequence (A0A0M8MPA4 1-242): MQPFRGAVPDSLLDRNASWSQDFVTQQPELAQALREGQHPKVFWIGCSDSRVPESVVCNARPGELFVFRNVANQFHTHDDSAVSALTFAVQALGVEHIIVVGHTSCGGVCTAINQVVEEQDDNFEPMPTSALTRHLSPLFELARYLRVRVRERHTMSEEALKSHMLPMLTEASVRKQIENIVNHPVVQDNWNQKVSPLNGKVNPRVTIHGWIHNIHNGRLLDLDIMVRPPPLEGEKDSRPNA
Protocol: An applied photophysics stopped-flow instrument was used for assaying the CA-catalyzed CO2 hydration activity [49].
At least six measurements of the original 5–10% reaction were used to assess the initial velocity for each inhibitor. The uncatalyzed rates were identically determined and detracted from the total observed rates. Stock inhibitor solutions (10–100 mM) were prepared in distilled, deionized water, and dilutions up to 0.01 mM were performed with the buffer test. […] The inhibition constants, which represent the mean from at least three different determinations, were obtained by the non-linear least-squares methods using PRISM 6 and the Cheng–Prusoff equation, as reported earlier [50]. […] All salts/small molecules were of the highest purity available from Sigma-Aldrich (Milan, Italy).

Row | Compound | Ki [1] | Ki [2] | Ki [3]
1 | CCN[C@H]1CN(CCCOC)S(=O)(=O)c2sc(S(N)(=O)=O)cc21 [BRZ, Brinzolamide, reference compound] | 700 nM | > 10000 nM | 550 nM
2 | NS(=O)(=O)c1nnc(NS(=O)(=O)c2ccccc2)s1 [BZA, Benzolamide, reference compound] | 7150 nM | – | 120 nM
3 | Cc1ccc(-c2cc(C(F)(F)F)nn2-c2ccc(S(N)(=O)=O)cc2)cc1 [CLX, Celecoxib, reference compound] | 1400 nM | > 10000 nM | 60 nM
4 | NS(=O)(=O)c1cc(Cl)c(Cl)c(S(N)(=O)=O)c1 [DCP, Dichlorophenamide, reference compound] | 3060 nM | 340 nM | –
5 | NS(=O)(=O)NCCNc1nonc1C(=NO)Nc1ccc(F)c(Br)c1 [EPA, Epacadostat, reference compound] | – | – | 630 nM
6 | NC(N)=Nc1nc(CSCCC(N)=NS(N)(=O)=O)cs1 [FAM, Famotidine, reference compound] | – | – | 4910 nM
7 | NS(=O)(=O)c1cc2c(cc1Cl)NCNS2(=O)=O [HCT, Hydrochlorothiazide, reference compound] | 8500 nM | – | 260 nM
8 | NS(=O)(=O)c1ccc(S(=O)(=O)Nc2cccc3c(Cl)c[nH]c23)cc1 [IND, Indisulam E7070, reference compound] | < 1000 nM | – | 4820 nM
9 | CC(=O)/N=c1/sc(S(N)(=O)=O)nn1C [MZA, Methazolamide, reference compound] | – | – | 1720 nM
10 | O=C1NS(=O)(=O)c2ccccc21 [SAC, Saccharin, reference compound] | – | – | 1030 nM
11 | CCN1CCCC1CNC(=O)c1cc(S(N)(=O)=O)ccc1OC (stereo not drawn) [SLP, Sulpiride, reference compound] | 4850 nM | – | –
12 | NS(=O)(=O)c1ccc(N2CCCCS2(=O)=O)cc1 [SLT, Sulthiame, reference compound] | 670 nM | – | 1880 nM
13 | CC1(C)O[C@@H]2[C@@H](CO[C@@]3(COS(N)(=O)=O)OC(C)(C)O[C@@H]23)O1 [TPM, Topiramate, reference compound] | 3830 nM | 1460 nM | 480 nM
14 | Cc1onc(-c2ccccc2)c1-c1ccc(S(N)(=O)=O)cc1 [VLX, Valdecoxib, reference compound] | 770 nM | – | 630 nM
15 | NS(=O)(=O)Cc1noc2ccccc12 [ZNS, Zonisamide, reference compound] | – | – | 2420 nM
16 | Nc1cccc(S(N)(=O)=O)c1 [compound 1] | – | – | 1990 nM
17 | Nc1ccc(S(N)(=O)=O)cc1 [compound 2] | 4620 nM | 240 nM | –
18 | NS(=O)(=O)c1cccc(S(N)(=O)=O)c1 [compound 3] | > 10000 nM | 150 nM | 1500 nM
19 | Cc1ccc(S(N)(=O)=O)cc1 [compound 4] | – | – | 1090 nM
20 | NCc1ccc(S(N)(=O)=O)cc1 [compound 5] | > 10000 nM | – | 2180 nM

Row | Compound | Ki [1] | Ki [2] | Ki [3]
21 | NCCc1ccc(S(N)(=O)=O)cc1 [compound 6] | > 10000 nM | – | –
22 | Nc1ccc(S(N)(=O)=O)cc1F [compound 7] | 4590 nM | 110 nM | 2480 nM
23 | Nc1ccc(S(N)(=O)=O)cc1Cl [compound 8] | > 10000 nM | 120 nM | 1680 nM
24 | Nc1ccc(S(N)(=O)=O)cc1Br [compound 9] | > 10000 nM | 340 nM | –
25 | NS(=O)(=O)c1cc(Cl)cc(Cl)c1O [compound 10] | > 10000 nM | 540 nM | 2010 nM
26 | Nc1cc(C(F)(F)F)c(S(N)(=O)=O)cc1S(N)(=O)=O [compound 11] | 6760 nM | – | –
27 | Nc1cc(Cl)c(S(N)(=O)=O)cc1S(N)(=O)=O [compound 12] | > 10000 nM | – | 2740 nM
28 | Nc1nnc(S(N)(=O)=O)s1 [compound 13] | – | – | 1090 nM
29 | Cn1nc(S(N)(=O)=O)sc1=N [compound 14] | > 10000 nM | > 10000 nM | 580 nM
30 | NS(=O)(=O)c1ccc(O)cc1 [compound 15] | > 10000 nM | 230 nM | 610 nM
31 | NS(=O)(=O)c1ccc(CO)cc1 [compound 16] | 6510 nM | 100 nM | 1060 nM
32 | NS(=O)(=O)c1ccc(CCO)cc1 [compound 17] | > 10000 nM | 60 nM | –
33 | NS(=O)(=O)c1ccc(C(=O)O)cc1 [compound 18] | > 10000 nM | 60 nM | –
34 | Nc1nccc(Nc2ccc(S(N)(=O)=O)cc2)n1 [compound 19] | 7790 nM | > 10000 nM | 590 nM
35 | Nc1ccc(S(=O)(=O)Nc2nnc(S(N)(=O)=O)s2)cc1 [compound 20] | 910 nM | 230 nM | 610 nM
36 | NS(=O)(=O)c1ccc(CCNS(=O)(=O)c2ccc([N+](=O)[O-])cc2CO)cc1 [compound 21] | 7400 nM | 110 nM | 270 nM
37 | Nc1ccc(S(=O)(=O)Nc2ccc(S(N)(=O)=O)cc2)cc1 [compound 22] | 3740 nM | 90 nM | 1370 nM
38 | Nc1ccc(S(=O)(=O)NCc2ccc(S(N)(=O)=O)cc2)cc1 [compound 23] | > 10000 nM | > 10000 nM | 260 nM
39 | Nc1ccc(S(=O)(=O)NCCc2ccc(S(N)(=O)=O)cc2)cc1 [compound 24] | – | – | 1270 nM
